The subject of data set [1] is Pregnane X receptor (PXR). Briefly: Cyp induction: PXR luciferase reporter in human hepatoma cell line. The format is cell-based. As to conditions: concentrations up to 50 uM. The protocol: Pregnane X receptor (PXR) activation was used as a marker of Cyp induction. An engineered human hepatoma cell line with a PXR luciferase reporter was incubated with the indicated concentrations of α-NETA, Rifampicin (positive control), or DMSO (negative control), and luciferase activity assessed (Cyprotex/Evotec AG).

The next data set relates to Cyp1A2. Also noted: method as in PubChem BioAssay ID 1476. The settings on record: ref PubChem BioAssay ID 1476; cited from earlier work.
For the next data set, the target named is T1, hERG potassium channel (Homo sapiens, UniProt Q12809).
T1 construct: host or cells: CHO
Briefly: hERG inhibition, patch-clamp with CHO-hERG transfectants. The settings on record: hERG tail current, 0.008-25 uM. The format is cell-based. How it is done:
A patch-clamp assay with single CHO-hERG cell transfectants were used to quantify potential α-NETA-dependent hERG inhibition (2–3 cells per compound concentration). […] The cell was depolarized, and the hERG tail current was measured, and IC50 determined (Cyprotex/Evotec AG).

A further data set has as its system (hu)CMKLR1 L1.2 cells. Briefly: Chemotaxis assay toward huChemerin. The format is cell-based, human. As to conditions: Homo sapiens; (hu)CMKLR1 L1.2 cells migrating toward huChemerin, 2 h; read-out: Chemotaxis IC50 mean ± SEM (n). How it is done:
(hu)CMKLR1 transfectants (generated in L1.2 pre-B cell lymphoma cells) were grown in RPMI 1640 (Corning) supplemented with L-glutamine, penicillin-streptomycin, and 10% BCS and G418-sulfate (KSE Scientific). DiscoverX PathHunter® CHO-K1 CMKLR1 β-Arrestin Cells were grown in RPMI lacking phenol red (Gibco, Life Technologies), supplemented with L-glutamine, penicillin-streptomycin, sodium pyruvate, non-essential amino acid, BCS, hygromycin, and G418-sulfate.
(hu)CMKLR1 L1.2 cells at 1 × 10^6 cell/ml were treated with 5 mM sodium butyrate (Sigma) overnight to induce hCMKLR1 expression. The next day, cells were washed in migration media (RPMI + 0.5%BSA) and resuspended at 1.5–3 × 10^6 cell/ml. Cells were pre-incubated at RT for 10 min with various concentrations of α-NETA or test compounds (α-NETA and test compounds were reconstituted in DMSO; final DMSO concentration in each well was 0.1%). 100 ul of cells were added to the upper chamber of a 24-well transwell plate (5 um pore size, Costar). Cells were allowed to migrate toward huChemerin ([…] in migration media, bottom chamber) for 2 h, 37 °C, 5% CO2. The number of migrated cells was quantified by flow cytometry (BD LSR2), and live cells were distinguished based on FSC × SSC properties. The background for this assay was typically low with 0 cells migrating to the buffer alone. For each independent trial, data was normalized to the maximum migration per compound tested and an IC50 value was generated using GraphPad Prism software. The average IC50 value for n independent trials (as specified in the table) is reported.

Another data set has as its target T2, Cyp2C9 (Homo sapiens, UniProt P11712).
T2 construct: tissue Cyprotex/Evotec AG; host or cells: human liver microsomes
Briefly: Cyp enzyme inhibition in human liver microsomes. The format is in vitro ADME. As to conditions: 30 min pre-incubation.

Data set [2] is described as follows: Acute single dose toxicity (LD50). The settings on record: C57BL/6, mouse, in vivo; p.o. (oral gavage) in 10% captisol, WT C57BL6 mice, 14 days monitoring.
Method: C57/BL6 mice received one treatment of α-NETA (formulated in 10% captisol, Cydex Pharmaceuticals) at the following doses: 3000, 1000, 300, 100, 30, 0 mg/kg by oral gavage (200 ul/dose, 3 mice/group). Mouse survival was monitored and body weight was measured daily for 14 days. On day 14 the mice were euthanized and the wet weight for the following tissues: kidney, brain, spleen, liver, heart, and lung, was recorded.
The target in the next data set is T3, Cyp2B6 (Homo sapiens, UniProt P20813).
T3 construct: tissue Cyprotex/Evotec AG; host or cells: human liver microsomes
T3 sequence (P20813 1-491): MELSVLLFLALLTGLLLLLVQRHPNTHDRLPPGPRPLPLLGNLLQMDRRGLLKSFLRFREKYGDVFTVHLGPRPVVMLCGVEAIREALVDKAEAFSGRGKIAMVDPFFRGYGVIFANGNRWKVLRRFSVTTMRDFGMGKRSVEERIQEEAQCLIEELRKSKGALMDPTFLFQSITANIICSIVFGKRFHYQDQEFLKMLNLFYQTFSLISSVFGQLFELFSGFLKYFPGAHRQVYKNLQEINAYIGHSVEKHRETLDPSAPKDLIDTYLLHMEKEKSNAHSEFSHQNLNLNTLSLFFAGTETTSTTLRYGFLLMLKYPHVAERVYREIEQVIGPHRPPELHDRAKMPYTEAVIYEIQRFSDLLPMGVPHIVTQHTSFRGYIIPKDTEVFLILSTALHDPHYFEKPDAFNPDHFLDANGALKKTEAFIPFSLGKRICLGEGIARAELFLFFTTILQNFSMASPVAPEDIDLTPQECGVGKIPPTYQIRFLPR
Kind of data set: Cyp enzyme inhibition in human liver microsomes. As to conditions: 30 min pre-incubation. The format is in vitro ADME.

The next data set concerns the target T4, Cyp2C19 (Homo sapiens, UniProt P33261).
T4 construct: tissue Cyprotex/Evotec AG; host or cells: human liver microsomes
Kind of data set: Cyp enzyme inhibition in human liver microsomes. The format is in vitro ADME. As to conditions: 30 min pre-incubation.

The next data set concerns Cyp2D6. Also noted: method as in PubChem BioAssay ID 1461. The settings on record: ref PubChem BioAssay ID 1461; cited from earlier work.
Data set [3] relates to Salmonella typhimurium (TA100). Kind of data set: Ames test for genotoxicity (AMES-MOD ISO). As to conditions: concentrations up to at least 10 uM.
Method: Ames test was completed using the AMES-MOD ISO 96 well format assay, Version 1.1 (Environmental Bio-Detection Products Inc.) according to manufacturer’s instructions. In brief, Salmonella typhimurium (TA100) bacterial strain was exposed to the indicated doses of sodium azide (positive control) or α-NETA solubilized in DMSO (1% DMSO/well, 48 wells/dose completed in triplicate). After 2 h incubation the cells were diluted and cultured in media lacking histidine but containing pH indicator to identify revertant cell growth. After 3 days of incubation at 37 °C, the number of wells containing revertant cells was counted per dose.
The next data set addresses T5, Cyp2C8 (Homo sapiens, UniProt P10632).
T5 construct: tissue Cyprotex/Evotec AG; host or cells: human liver microsomes
T5 sequence (P10632 1-490): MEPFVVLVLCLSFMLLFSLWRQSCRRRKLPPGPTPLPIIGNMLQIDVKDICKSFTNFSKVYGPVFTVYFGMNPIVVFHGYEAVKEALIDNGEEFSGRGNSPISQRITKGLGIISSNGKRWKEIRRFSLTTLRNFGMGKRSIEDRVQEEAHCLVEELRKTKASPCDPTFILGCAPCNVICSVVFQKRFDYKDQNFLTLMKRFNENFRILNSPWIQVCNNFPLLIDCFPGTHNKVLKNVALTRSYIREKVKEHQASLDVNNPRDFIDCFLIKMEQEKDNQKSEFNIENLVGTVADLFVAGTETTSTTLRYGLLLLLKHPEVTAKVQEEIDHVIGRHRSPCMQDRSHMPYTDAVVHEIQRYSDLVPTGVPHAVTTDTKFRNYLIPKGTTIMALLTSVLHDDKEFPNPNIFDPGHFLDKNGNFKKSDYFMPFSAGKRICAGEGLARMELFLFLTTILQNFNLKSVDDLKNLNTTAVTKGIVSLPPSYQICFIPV
Kind of data set: Cyp enzyme inhibition in human liver microsomes. The format is in vitro ADME. As to conditions: 30 min pre-incubation.

Structures are written as SMILES.

T4 sequence (P33261 whole entry): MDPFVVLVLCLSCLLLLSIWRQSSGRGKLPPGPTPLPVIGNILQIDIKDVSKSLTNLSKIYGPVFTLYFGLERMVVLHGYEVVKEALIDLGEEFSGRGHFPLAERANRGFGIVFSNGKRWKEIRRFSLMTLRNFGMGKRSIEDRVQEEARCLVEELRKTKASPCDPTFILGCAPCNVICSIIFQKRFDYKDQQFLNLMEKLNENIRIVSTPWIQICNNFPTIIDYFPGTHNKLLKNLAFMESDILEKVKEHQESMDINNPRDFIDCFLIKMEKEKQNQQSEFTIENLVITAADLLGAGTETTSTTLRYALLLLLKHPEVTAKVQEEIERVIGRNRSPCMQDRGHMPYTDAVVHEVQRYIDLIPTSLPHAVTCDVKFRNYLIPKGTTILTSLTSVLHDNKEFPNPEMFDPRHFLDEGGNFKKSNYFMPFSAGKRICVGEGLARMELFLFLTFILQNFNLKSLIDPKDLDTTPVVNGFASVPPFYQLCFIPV
T1 sequence (Q12809 whole entry): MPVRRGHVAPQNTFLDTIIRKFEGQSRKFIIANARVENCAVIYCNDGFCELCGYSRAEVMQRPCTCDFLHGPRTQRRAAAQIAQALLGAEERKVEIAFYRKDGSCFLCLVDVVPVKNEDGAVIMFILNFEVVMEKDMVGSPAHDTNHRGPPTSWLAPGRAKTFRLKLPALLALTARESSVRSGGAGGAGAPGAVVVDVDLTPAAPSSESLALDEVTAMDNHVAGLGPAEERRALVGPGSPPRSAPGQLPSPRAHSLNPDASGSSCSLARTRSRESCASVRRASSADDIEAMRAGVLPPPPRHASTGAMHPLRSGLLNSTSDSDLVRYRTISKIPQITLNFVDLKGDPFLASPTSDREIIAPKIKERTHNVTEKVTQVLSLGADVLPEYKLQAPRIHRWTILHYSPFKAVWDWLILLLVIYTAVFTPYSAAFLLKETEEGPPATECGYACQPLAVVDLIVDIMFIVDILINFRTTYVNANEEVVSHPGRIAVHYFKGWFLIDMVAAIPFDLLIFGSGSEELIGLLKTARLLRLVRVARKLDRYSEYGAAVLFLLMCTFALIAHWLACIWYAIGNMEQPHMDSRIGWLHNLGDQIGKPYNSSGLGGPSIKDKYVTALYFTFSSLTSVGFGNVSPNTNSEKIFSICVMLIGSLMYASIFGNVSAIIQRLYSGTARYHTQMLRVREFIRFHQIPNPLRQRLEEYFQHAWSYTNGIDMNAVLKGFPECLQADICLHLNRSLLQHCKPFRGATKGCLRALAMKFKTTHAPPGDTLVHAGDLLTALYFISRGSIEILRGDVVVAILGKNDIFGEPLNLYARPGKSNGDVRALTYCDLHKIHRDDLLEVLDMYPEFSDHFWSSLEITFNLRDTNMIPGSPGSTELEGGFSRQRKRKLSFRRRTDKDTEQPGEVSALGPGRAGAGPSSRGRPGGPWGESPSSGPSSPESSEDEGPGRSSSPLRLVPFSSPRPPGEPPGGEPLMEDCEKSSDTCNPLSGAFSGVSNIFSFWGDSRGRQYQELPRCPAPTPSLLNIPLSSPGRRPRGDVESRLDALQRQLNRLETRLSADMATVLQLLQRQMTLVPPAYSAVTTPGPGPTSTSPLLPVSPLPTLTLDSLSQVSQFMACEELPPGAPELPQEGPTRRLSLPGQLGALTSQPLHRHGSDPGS
T2 sequence (P11712 whole entry): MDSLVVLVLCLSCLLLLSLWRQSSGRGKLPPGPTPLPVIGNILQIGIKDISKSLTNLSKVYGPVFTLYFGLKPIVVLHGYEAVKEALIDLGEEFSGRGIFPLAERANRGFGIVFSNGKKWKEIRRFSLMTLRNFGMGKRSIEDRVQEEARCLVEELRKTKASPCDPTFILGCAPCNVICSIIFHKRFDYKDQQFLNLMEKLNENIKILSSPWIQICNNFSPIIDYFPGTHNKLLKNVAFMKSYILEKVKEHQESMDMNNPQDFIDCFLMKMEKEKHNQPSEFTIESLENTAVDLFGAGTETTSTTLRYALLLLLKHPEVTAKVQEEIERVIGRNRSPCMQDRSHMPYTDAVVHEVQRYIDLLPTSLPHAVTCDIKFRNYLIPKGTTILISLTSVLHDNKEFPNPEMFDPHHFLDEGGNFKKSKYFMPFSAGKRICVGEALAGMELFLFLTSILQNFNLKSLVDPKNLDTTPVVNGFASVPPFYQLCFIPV

Take `C[N+](C)(C)CCC(=O)c1cccc2ccccc12.[I-]` [α-NETA, 2-(α-naphthoyl) ethyltrimethylammonium iodide]: in [1], the “PXR activation (marker of Cyp induction)” value is listed as “did not induce substantial PXR activity”. Besides, the 50% inhibitory concentration (IC50) in the data set on Cyp1A2 was 8 µM; on hERG potassium channel, 10.4 µM; with (hu)CMKLR1 L1.2 cells, 37 ± 8.9 µM; at Cyp2C9, 14.6 µM; on Cyp2B6, 0.12 µM; against Cyp2C19, 84 µM. Moreover, the IC50 with Cyp2D6 was above 10 µM; against Cyp2C8 it was 1.5 µM. For the same compound, the LD50 at 14 days in data set [2] came out at 873 mg/kg. The “mutagenesis in Ames test (histidine revertants)” value in data set [3] is “did not induce mutagenesis”.
